This is an account of results in patent US8710083B2, “Pyridylphenyl compounds for inflammation and immune-related uses” (Synta Pharmaceuticals Corp., priority 2006, dated 2014).

Structures are written as SMILES. Counter-ions that a name gives are not always drawn.

The first experiment concerns IL-2 production. Briefly: Inhibition of IL-2 production in PHA-activated Jurkat cells (ELISA). In kind it is cell-based. The conditions noted are these: Homo sapiens, Jurkat, 20 h, PHA 2.5 μg/mL, IL-2 ELISA. As for the experimental part:
Jurkat cells were placed in a 96 well plate (0.5 million cells per well in 1% FBS medium) then a test compound of this invention was added at different concentrations. After 10 minutes, the cells were activated with PHA (final concentration 2.5 μg/mL) and incubated for 20 hours at 37° C. under CO2. The final volume was 200 μL. Following incubation, the cells were centrifuged and the supernatants collected and stored at −70° C. prior to assaying for IL-2 production. A commercial ELISA kit (IL-2 Eli-pair, Diaclone Research, Besancon, France) was used to detect production of IL-2, from which dose response curves were obtained. The IC50 value was calculated as the concentration at which 50% of maximum IL-2 production after stimulation was inhibited versus a non-stimulation control.
By IC50 is commonly meant the point on the concentration scale where inhibition reaches its midpoint. For `Cc1nc(NC(=O)c2c(F)cccc2F)ccc1-c1cccc(C(F)(F)F)c1` [Compound 15, 2,6-Difluoro-N-[6-methyl-5-(3-trifluoromethyl-phenyl)-pyridin-2-yl]-benzamide], the IC50 is 98 nM. As for `Cc1ccc(-c2nnco2)cc1-c1ccc(NC(=O)c2c(F)cccc2F)nc1` [Compound 69, 2,6-difluoro-N-(5-(2-methyl-5-(1,3,4-oxadiazol-2-yl)phenyl)pyridin-2-yl)benzamide], the IC50 was found to be 73 nM. Same read-out and setting: as for `O=C(Nc1ccc(-c2cc(-c3nccs3)ccc2Cl)nc1)c1c(F)cccc1F` [Compound 72, N-(6-(2-chloro-5-(thiazol-2-yl)phenyl)pyridin-3-yl)-2,6-difluorobenzamide], the figure is 17 nM; as for `O=C(Nc1ccc(-c2cc(-c3nccs3)ccc2Cl)cn1)c1c(F)cccc1F` [Compound 10, N-[5-(2-Chloro-5-thiazol-2-yl-phenyl)-pyridin-2-yl]-2,6-difluoro-benzamide], 2 nM; as for `COC(=O)c1ccc(Cl)c(-c2ccc(NC(=O)c3c(F)cccc3F)nc2)c1` [Compound 6, 4-Chloro-3-[6-(2,6-difluoro-benzoylamino)-pyridin-3-yl]-benzoic acid methyl ester], 6 nM.

In the case of `Cc1ccc(-c2ncco2)cc1-c1ccc(NC(=O)c2snnc2C)nc1` [Compound 18, 4-Methyl-[1,2,3]thiadiazole-5-carboxylic acid [5-(2-methyl-5-oxazol-2-yl-phenyl)-pyridin-2-yl]-amide], it took 12 nM to reach half-maximal inhibition (IC50). Turning to `O=C(Nc1ccc(-c2cc(-c3ncco3)ccc2Cl)cn1)c1c(F)cccc1F` [Compound 8, N-[5-(2-Chloro-5-oxazol-2-yl-phenyl)-pyridin-2-yl]-2,6-difluoro-benzamide], inhibition was half-maximal at 3 nM (IC50).

Take `Cc1ccc(-c2cnco2)cc1-c1ccc(NC(=O)c2snnc2C)nc1` [Compound 21, 4-methyl-N-(5-(2-methyl-5-(oxazol-5-yl)phenyl)pyridin-2-yl)-1,2,3-thiadiazole-5-carboxamide]: it took 31 nM to reach half-maximal inhibition (IC50). Same read-out and setting: the same measure for `Cc1ccc(-c2ncco2)cc1-c1ccc(NC(=O)c2c(F)cccc2F)cn1` [Compound 20, 2,6-Difluoro-N-[6-(2-methyl-5-oxazol-2-yl-phenyl)-pyridin-3-yl]-benzamide hydrochloride]: 12 nM; for `Cc1nnsc1C(=O)Nc1ccc(-c2cc(-c3ncco3)ccc2Cl)cn1` [Compound 19, 4-Methyl-[1,2,3]thiadiazole-5-carboxylic acid [5-(2-chloro-5-oxazol-2-yl-phenyl)-pyridin-2-yl]-amide]: 7 nM; for `Cc1ccc(-c2cnco2)cc1-c1ccc(NC(=O)c2c(F)cccc2F)cn1` [Compound 78, 2,6-Difluoro-N-(6-(2-methyl-5-(oxazol-5-yl)phenyl)pyridin-3-yl)benzamide]: 10 nM. Still for that read-out and setting: the same measure for `Cc1ccc(-c2nnco2)cc1-c1ccc(NC(=O)c2c(F)cccc2F)cn1` [Compound 75, 2,6-Difluoro-N-(6-(2-methyl-5-(1,3,4-oxadiazol-2-yl)phenyl)pyridin-3-yl)benzamide]: 98 nM. Molecule `O=C(Nc1ccc(-c2cc(-c3nnco3)ccc2Cl)cn1)c1c(F)cccc1F` [Compound 71, N-(5-(2-chloro-5-(1,3,4-oxadiazol-2-yl)phenyl)pyridin-2-yl)-2,6-difluorobenzamide] came in with an IC50 of 17 nM. Against the preceding molecule, the IC50 is about 5.8-fold lower. `O=C(Nc1ccc(-c2cc(-c3ncco3)ccc2Cl)nc1)c1c(F)cccc1F` [Compound 76, N-(6-(2-chloro-5-(oxazol-2-yl)phenyl)pyridin-3-yl)-2,6-difluorobenzamide] gave an IC50 of 9 nM. On to `Cc1ccc(-c2ncco2)cc1-c1ccc(NC(=O)c2ccc(Cl)cc2F)cn1` [Compound 80, 4-chloro-2-fluoro-N-(6-(2-methyl-5-(oxazol-2-yl)phenyl)pyridin-3-yl)benzamide], for which the IC50 was found to be 180 nM. On the same count and under the same terms, as for `Cc1nnsc1C(=O)Nc1ccc(-c2cc(-c3nccs3)ccc2Cl)cn1` [Compound 17, 4-Methyl-[1,2,3]thiadiazole-5-carboxylic acid [5-(2-chloro-5-thiazol-2-yl-phenyl)-pyridin-2-yl]-amide], the figure is 2 nM.

The molecule `Cc1nnsc1C(=O)Nc1ccc(-c2cc(C(F)(F)F)ccc2Cl)cn1` [Compound 16, 4-Methyl-[1,2,3]thiadiazole-5-carboxylic acid [5-(2-chloro-5-trifluoromethyl-phenyl)-pyridin-2-yl]-amide] came in with an IC50 of 15 nM.

Turning to `Cc1cc(NC(=O)c2c(F)cccc2F)ncc1-c1cccc(C(F)(F)F)c1` [Compound 14, 2,6-Difluoro-N-[4-methyl-5-(3-trifluoromethyl-phenyl)-pyridin-2-yl]-benzamide], the IC50 turned out to be 16 nM. Same read-out and setting: the same measure for `COC(=O)c1ccc(C)c(-c2ccc(NC(=O)c3c(F)cccc3F)nc2)c1` [Compound 7, 3-[6-(2,6-Difluoro-benzoylamino)-pyridin-3-yl]-4-methyl-benzoic acid methyl ester]: 4 nM.

`Cc1ccc(-c2cnco2)cc1-c1ccc(NC(=O)c2c(F)cccc2F)nc1` [Compound 70, 2,6-difluoro-N-(5-(2-methyl-5-(oxazol-5-yl)phenyl)pyridin-2-yl)benzamide] gave an IC50 of 9 nM. Still for that read-out and setting: the same measure for `Cc1ccc(-c2nccs2)cc1-c1ccc(NC(=O)c2c(F)cccc2F)cn1` [Compound 74, 2,6-Difluoro-N-(6-(2-methyl-5-(thiazol-2-yl)phenyl)pyridin-3-yl)benzamide]: 25 nM; for `COc1ccc(-c2cnco2)cc1-c1ccc(NC(=O)c2snnc2C)nc1` [Compound 67, N-(5-(2-methoxy-5-(oxazol-5-yl)phenyl)pyridin-2-yl)-4-methyl-1,2,3-thiadiazole-5-carboxamide]: 7 nM; for `Cc1ccc(-c2ccno2)cc1-c1ccc(NC(=O)c2snnc2C)nc1` [Compound 68, N-(5-(5-(isoxazol-5-yl)-2-methylphenyl)pyridin-2-yl)-4-methyl-1,2,3-thiadiazole-5-carboxamide]: 38 nM.

The experiment is the same for the next values; noted with them: PHA 2.5 μg/mL, 20 hours, IL-2 ELISA.
Take `Cc1ccc(-c2ncco2)cc1-c1ccc(NC(=O)c2c(F)cccc2F)cn1` [Compound 13, 2,6-Difluoro-N-[6-(2-methyl-5-oxazol-2-yl-phenyl)-pyridin-3-yl]-benzamide]: the IC50 stood at 14 nM. On the same count and under the same terms, as for `O=C(Nc1ccc(-c2cc(-c3ncco3)ccc2Cl)nc1)c1c(F)cccc1F` [Compound 77, N-(6-(2-chloro-5-(oxazol-2-yl)phenyl)pyridin-3-yl)-2,6-difluorobenzamide hydrochloric acid salt], the figure is 11 nM.
